Source: patent US20020137929A1, “1 - (3-heterocyclylphenyl) isothiourea, -isourea, -guanidine and -amidine herbicidal agents” (Intellectual Property Department, BASF Aktiengesellschaft, priority 1998, published 2002)

What was measured:
[1] = tested on: ABUTH (Velvetleaf); assay: Postemergence herbicidal evaluation; format: in vivo, Abutilon theophrasti; conditions: postemergence
Outline: (§1)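 Compound is applied as a foliar spray to seedlings about two weeks old, formulated in equal parts acetone and water with 0.5% TWEEN 20 and delivered at 40 psi to give about 0.0156–0.500 kg per hectare. Injury is rated visually 0–9 after four to five weeks.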

[2] = tested on: IPOHE (Morningglory, Ivyleaf); assay: Postemergence herbicidal evaluation; format: in vivo, Ipomoea hederacea; conditions: postemergence
Outline: as §1

[3] = tested on: TRZAWR (Wheat, Winter, cv Riband); assay: Postemergence herbicidal evaluation; format: in vivo, Triticum aestivum; conditions: postemergence
Outline: as §1

[4] = tested on: CHEAL (Lambsquarters, Common); assay: Preemergence herbicidal evaluation; format: in vivo, Chenopodium album; conditions: rated 4-5 weeks after treatment
Outline: (§2)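 Each species is sown separately in potting soil over roughly an inch of soil before any emergence. The soil surface then receives an aqueous acetone spray delivering about 0.0156 to 0.500 kg/ha of compound. After four to five weeks, injury is scored from 0 to 9 relative to a control.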

[5] = tested on: IPOHE (Morningglory, Ivyleaf); assay: Preemergence herbicidal evaluation; format: in vivo, Ipomoea hederacea; conditions: rated 4-5 weeks after treatment
Outline: as §2

[6] = tested on: ECHCG (Barnyardgrass); assay: Preemergence herbicidal evaluation; format: in vivo, Echinochloa crus-galli; conditions: rated 4-5 weeks after treatment
Outline: as §2

[7] = tested on: SETVI (Foxtail, Green); assay: Preemergence herbicidal evaluation; format: in vivo, Setaria viridis; conditions: rated 4-5 weeks after treatment
Outline: as §2

[8] = tested on: ORYSAT (Rice, Tebonnet); assay: Preemergence herbicidal evaluation; format: in vivo, Oryza sativa, (L.) Tebonnet; conditions: rated 4-5 weeks after treatment
Outline: as §2

[9] = tested on: TRZAWR (Wheat, Winter, cv Riband); assay: Preemergence herbicidal evaluation; format: in vivo, Triticum aestivum; conditions: rated 4-5 weeks after treatment
Outline: as §2

[10] = tested on: ECHORC (Watergrass (Calif.)); assay: Preemergence weed control under flooded paddy conditions; format: in vivo, Echinochloa oryzoides; conditions: rated 3-4 weeks after treatment
Outline: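 First, seeds or propagules go into the top 0.5 cm of silt loam; next, water is held 1.5 to 3 cm over the soil; then compound (50/50 acetone/water) is pipetted into it at about 0.0313 to 0.500 kg/ha; finally plants are rated visually 0-9 after three to four weeks.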

[11] = tested on: MOOVA (Monochoria); assay: as above; format: in vivo, Monochoria vaginalis; conditions: rated 3-4 weeks after treatment
Outline: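 Seeds or propagules sown in silt loam kept flooded 1.5-3 cm; compounds in 50/50 acetone/water pipetted into flood water at about 0.0313 to 0.500 kg/ha. Greenhouse; visual 0-9 rating versus untreated control 3-4 weeks after treatment.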

[12] = rate 0.0156 kg/ha, rating scale 0-9
[13] = rate 0.0313 kg/ha, rating scale 0-9
[14] = rate 0.0625 kg/ha, rating scale 0-9
[15] = rate 0.1250 kg/ha, rating scale 0-9
[16] = rate 0.2500 kg/ha, rating scale 0-9

CCCCOC(=O)CN1C(=O)CSC1=Nc1cc(-n2c(=O)cc(C(F)(F)F)n(C)c2=O)c(F)cc1Cl [Compound 111]
herbicidal rating ABUTH ([1]; rate 0.0158 kg/ha): 7.0
herbicidal rating ABUTH ([1]; rate 0.0315 kg/ha): 9.0
herbicidal rating ABUTH ([1]; rate 0.0630 kg/ha): 9.0
herbicidal rating IPOHE ([2]; rate 0.0158 kg/ha): 4.0
herbicidal rating IPOHE ([2]; rate 0.0315 kg/ha): 9.0
herbicidal rating IPOHE ([2]; rate 0.0630 kg/ha): 9.0
herbicidal rating TRZAWR ([3]; rate 0.0158 kg/ha): 2.5
herbicidal rating TRZAWR ([3]; rate 0.0315 kg/ha): 4.5
herbicidal rating TRZAWR ([3]; rate 0.0630 kg/ha): 5.5
Preemergence herbicidal rating CHEAL ([4]; rate 0.0313 kg/ha): 0.0
Preemergence herbicidal rating CHEAL ([4]; rate 0.0625 kg/ha): 9.0
Preemergence herbicidal rating CHEAL ([4]; rate 0.1250 kg/ha): 9.0
Preemergence herbicidal rating CHEAL ([4]; rate 0.2500 kg/ha): 9.0
Preemergence herbicidal rating IPOHE ([5]; rate 0.0156 kg/ha): 0.0
Preemergence herbicidal rating IPOHE ([5]; rate 0.0313 kg/ha): 0.0
Preemergence herbicidal rating IPOHE ([5]; rate 0.0625 kg/ha): 0.0
Preemergence herbicidal rating IPOHE ([5]; rate 0.1250 kg/ha): 9.0
Preemergence herbicidal rating IPOHE ([5]; rate 0.2500 kg/ha): 7.0
Preemergence herbicidal rating ECHCG ([6]; rate 0.0156 kg/ha): 0.0
Preemergence herbicidal rating ECHCG ([6]; rate 0.0313 kg/ha): 0.0
Preemergence herbicidal rating ECHCG ([6]; rate 0.0625 kg/ha): 0.0
Preemergence herbicidal rating ECHCG ([6]; rate 0.1250 kg/ha): 0.0
Preemergence herbicidal rating ECHCG ([6]; rate 0.2500 kg/ha): 4.0
Preemergence herbicidal rating SETVI ([7]; rate 0.0156 kg/ha): 0.0
Preemergence herbicidal rating SETVI ([7]; rate 0.0313 kg/ha): 0.0
Preemergence herbicidal rating SETVI ([7]; rate 0.0625 kg/ha): 1.0
Preemergence herbicidal rating SETVI ([7]; rate 0.1250 kg/ha): 7.0
Preemergence herbicidal rating SETVI ([7]; rate 0.2500 kg/ha): 7.0
Preemergence herbicidal rating ORYSAT ([8]; rate 0.0156 kg/ha): 0.0
Preemergence herbicidal rating ORYSAT ([8]; rate 0.0313 kg/ha): 0.0
Preemergence herbicidal rating ORYSAT ([8]; rate 0.0625 kg/ha): 0.0
Preemergence herbicidal rating ORYSAT ([8]; rate 0.1250 kg/ha): 1.0
Preemergence herbicidal rating ORYSAT ([8]; rate 0.2500 kg/ha): 5.0
Preemergence herbicidal rating TRZAWR ([9]; rate 0.0156 kg/ha): 0.0
Preemergence herbicidal rating TRZAWR ([9]; rate 0.0313 kg/ha): 0.0
Preemergence herbicidal rating TRZAWR ([9]; rate 0.0625 kg/ha): 0.0
Preemergence herbicidal rating TRZAWR ([9]; rate 0.1250 kg/ha): 1.0
Preemergence herbicidal rating TRZAWR ([9]; rate 0.2500 kg/ha): 4.0
ECHORC herbicidal effect rating ([10]; 0.0313 kg/ha): 0.0
ECHORC herbicidal effect rating ([10]; 0.0625 kg/ha): 3.0
ECHORC herbicidal effect rating ([10]; 0.1250 kg/ha): 6.0
ECHORC herbicidal effect rating ([10]; 0.2500 kg/ha): 7.0
MOOVA herbicidal effect rating ([11]; 0.0313 kg/ha): 3.0
MOOVA herbicidal effect rating ([11]; 0.0625 kg/ha): 4.0
MOOVA herbicidal effect rating ([11]; 0.1250 kg/ha): 4.0
MOOVA herbicidal effect rating ([11]; 0.2500 kg/ha): 4.0

Cc1ccc(CN2C(=O)CSC2=Nc2cc(-n3c(=O)cc(C(F)(F)F)n(C)c3=O)c(F)cc2Cl)cc1C [Compound 147, 3-{4-Chloro-5-{[3-(3,4-dimethylbenzyl)-4-oxo-2-thiazolidinylidene]amino}-2-fluorophenyl}-1-methyl-6-(trifluoromethyl)-2,4(1H,3H)-pyrimidinedione]
herbicidal rating ABUTH ([1]; rate 0.0156 kg/ha): 9.0
herbicidal rating ABUTH ([1]; rate 0.0313 kg/ha): 9.0
herbicidal rating ABUTH ([1]; rate 0.0625 kg/ha): 9.0
herbicidal rating IPOHE ([2]; rate 0.0156 kg/ha): 9.0
herbicidal rating IPOHE ([2]; rate 0.0313 kg/ha): 9.0
herbicidal rating IPOHE ([2]; rate 0.0625 kg/ha): 9.0
herbicidal rating TRZAWR ([3]; rate 0.0156 kg/ha): 2.5
herbicidal rating TRZAWR ([3]; rate 0.0313 kg/ha): 3.5
herbicidal rating TRZAWR ([3]; rate 0.0625 kg/ha): 4.0
Preemergence herbicidal rating CHEAL [4, 12]: 0.0
Preemergence herbicidal rating CHEAL [4, 13]: 0.0
Preemergence herbicidal rating CHEAL [4, 14]: 6.0
Preemergence herbicidal rating CHEAL [4, 15]: 9.0
Preemergence herbicidal rating CHEAL [4, 16]: 9.0
Preemergence herbicidal rating IPOHE [5, 12]: 0.0
Preemergence herbicidal rating IPOHE [5, 13]: 0.0
Preemergence herbicidal rating IPOHE [5, 14]: 0.0
Preemergence herbicidal rating IPOHE [5, 15]: 0.0
Preemergence herbicidal rating IPOHE [5, 16]: 0.0
Preemergence herbicidal rating ECHCG [6, 12]: 0.0
Preemergence herbicidal rating ECHCG [6, 13]: 0.0
Preemergence herbicidal rating ECHCG [6, 14]: 0.0
Preemergence herbicidal rating ECHCG [6, 15]: 0.0
Preemergence herbicidal rating ECHCG [6, 16]: 0.0
Preemergence herbicidal rating SETVI [7, 12]: 1.0
Preemergence herbicidal rating SETVI [7, 13]: 0.0
Preemergence herbicidal rating SETVI [7, 14]: 0.0
Preemergence herbicidal rating SETVI [7, 15]: 1.0
Preemergence herbicidal rating SETVI [7, 16]: 4.0
Preemergence herbicidal rating ORYSAT [8, 12]: 0.0
Preemergence herbicidal rating ORYSAT [8, 13]: 0.0
Preemergence herbicidal rating ORYSAT [8, 14]: 0.0
Preemergence herbicidal rating ORYSAT [8, 15]: 0.0
Preemergence herbicidal rating ORYSAT [8, 16]: 0.0
Preemergence herbicidal rating TRZAWR [9, 12]: 0.0
Preemergence herbicidal rating TRZAWR [9, 13]: 0.0
Preemergence herbicidal rating TRZAWR [9, 14]: 0.0
Preemergence herbicidal rating TRZAWR [9, 15]: 0.0
Preemergence herbicidal rating TRZAWR [9, 16]: 0.0
herbicidal effect rating, ECHORC ([10]; 0.0313 kg/ha): 5.0
herbicidal effect rating, ECHORC ([10]; 0.0625 kg/ha): 7.0
herbicidal effect rating, ECHORC ([10]; 0.1250 kg/ha): 9.0
herbicidal effect rating, ECHORC ([10]; 0.2500 kg/ha): 9.0
herbicidal effect rating, MOOVA ([11]; 0.0313 kg/ha): 7.0
herbicidal effect rating, MOOVA ([11]; 0.0625 kg/ha): 9.0
herbicidal effect rating, MOOVA ([11]; 0.1250 kg/ha): 9.0
herbicidal effect rating, MOOVA ([11]; 0.2500 kg/ha): 9.0
